For experiment [1], the system named is islets of human T2D organ donors. Conditions: acute exposure of the T2D islets; cited from earlier work.
The target of experiment [2] is T1, recombinant human VDAC1 (hVDAC1) (Homo sapiens, UniProt P21796).
T1 construct: His (N); GST (N); purchased LSBio LS-G25810; host or cells: E. coli
In words: Microscale Thermophoresis (MST) binding assay with labeled VDAC1. To be noted: for pKd: MST, 5 nM labeled VDAC1, 25° C., 12-point dilution 100-0.04 µM, read-out: VDAC1 affinity (KD). The source says: MicroScale Thermophoresis (MST) is a biophysical technique that measures the strength of interaction (affinity) between two molecules by detecting variations in fluorescence signal as a result of an IR-laser induced temperature change. The range of the variation in the fluorescence signal correlates with the binding of a ligand to a fluorescent target. By that it allows for quantitative analysis of molecular interactions in solution on the microliter scale with high sensitivity.The MST signal is composed of two major factors: The TRIC effect and the thermophoresis. TRIC stands for Temperature-Related Intensity-Change and describes how the fluorescence intensity of a fluorophore depends on the local temperature of the solution. For the vast majority of fluorophores, the fluorescence intensity decreases with increasing temperature. Most importantly, however, the extent of the temperature dependence is strongly related to the chemical environment of the fluorophore. This environment is sensitively affected by the binding of a ligand molecule to the fluorescently labeled target molecule (via conformational changes or ligand-dye proximity). The second component of the MST-signal, the thermophoresis describes the movement of molecules along temperature gradients which results in a quantifiable change of the local concentration of the target molecules. As these target molecules are fluorescently labeled in MST, such concentration changes can be monitored simply by fluorescence measurements. This directed movement of molecules depends on their molecular size, charge, and hydration shell. Binding of a ligand to a target molecule leads to the change of at least one of these parameters and therefore to an altered thermophoretic movement of the target-ligand complex compared to the single molecules alone. In sum, both TRIC and thermophoresis contribute to the overall MST-signal, which is detected by fluorescence measurement. Due to this robust physical principle and direct monitoring, MST can be used for determining the affinity and binding strength of almost any kind of molecular interaction or modification of small molecules, proteins, peptides, DNA, sugars, or molecular complexes.
Reconstituted N-terminal His-GST tagged E. coli recombinant human VDAC1 (hVDAC1) was buffer exchanged into protein labeling buffer due to the primary amine of the Tris lyophilization buffer interferes with NHS-based labeling. The labeling buffer was kept as close to the storage buffer of the target protein as given on the protein data sheet (LSBio LS-G25810). Tris was replaced by HEPES. PLURONIC® F-127 was added to 0.05% in order to enhance protein recovery in the final dye removal step. The total volume of the labeling batch was 100 µL. The labeling time was 30 minutes. The labeling reaction was performed at room temperature. Any unbound or unreacted dye was separated from the labeled protein on a gravity-flow gel-filtration column (GE Healthcare, PD Minitrap G-25, GE28-9180-07). The final target buffer was kept as close to the original protein storage buffer as possible. It contained Tris again instead of HEPES.
The first step of the technical assay establishment was a so-called “noise test”. In this test, the intrinsic MST-noise of the labeled target protein was tested. Subsequently, a reference compound or positive control (CAS number: 2086257-77-2) was characterized to confirm previously reported VDAC1 binding (Zhang et al (2019)). Preserving Insulin Secretion in Diabetes by Inhibiting VDAC1 Overexpression and Surface Translocation in β Cells″. Cell Metabolism 29, 64-77.). In short, serial dilutions of the compound having CAS number: 2086257-77-2 was prepared in a way to match the final buffer conditions in the reaction mix (assay buffer). The highest concentration of ligand was 10.0 mM and the lowest 4.88 µM. A total of 12 dilution steps were prepared. […]
(MST reads how a fluorescent partner responds to local heating, with and without ligand.)

The source of these data is patent US20230348464A1, “NOVEL VDAC1 INHIBITORS” (ABARCEO AB, priority 2020, published 2023).

Molecules are shown by their SMILES. pKd: −log10 of the molar value.

T1 sequence (P21796 whole entry): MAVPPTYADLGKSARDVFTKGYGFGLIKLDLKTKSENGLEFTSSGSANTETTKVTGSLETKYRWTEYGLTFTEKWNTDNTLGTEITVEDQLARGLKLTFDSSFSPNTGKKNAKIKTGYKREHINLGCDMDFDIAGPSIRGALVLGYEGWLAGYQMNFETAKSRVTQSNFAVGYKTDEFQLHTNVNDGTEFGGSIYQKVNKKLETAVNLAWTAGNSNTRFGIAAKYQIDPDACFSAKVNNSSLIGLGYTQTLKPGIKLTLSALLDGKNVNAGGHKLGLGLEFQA

On to `O=C(CC(CO)N1CCN(c2ccc(OC(F)(F)F)cc2)CC1)Nc1ccc(Cl)cc1` (centres unmarked) [CAS: 2086257-77-2, N-(4-chlorophenyl)-4-hydroxy-3-{4-[4-(trifluoromethoxy)phenyl]piperazin-1-yl}butanamide, reference compound], for which, in experiment [1], the “glucose-stimulated insulin secretion (GSIS)” value is “restored GSIS”. The pKd in experiment [2] is 4.85.
As to `O=C(NCC(CO)N1CCN(c2ccc(OC(F)(F)F)cc2)CC1)c1ccc(Cl)cc1` (centres unmarked) [Example 1, 4-chloro-N-(3-hydroxy-2-{4-[4-(trifluoromethoxy)phenyl]piperazin-1-yl}propyl)benzamide], the pKd in experiment [2] was 4.92.
On to `O=C(CC(CCO)N1CCN(c2ccc(OC(F)(F)F)cc2)CC1)Nc1ccc(Cl)cc1` (centres unmarked) [Example 2, N-(4-chlorophenyl)-5-hydroxy-3-{4-[4-(trifluoromethoxy)phenyl]piperazin-1-yl}pentanamide], for which the pKd in experiment [2] was 5.08.
For `O=C(CC(CO)N1CCCN(c2ccc(OC(F)(F)F)cc2)CC1)Nc1ccc(Cl)cc1` (centres unmarked) [Example 3, N-(4-chlorophenyl)-4-hydroxy-3-{4-[4-(trifluoromethoxy)phenyl]-1,4-diazepan-1-yl}butanamide], in experiment [2], the pKd is 5.28.
Consider `O=C(CC(CO)N1CC2=C(CN(c3ccc(OC(F)(F)F)cc3)C2)C1)Nc1ccc(Cl)cc1` (centres unmarked) [Example 4, N-(4-chlorophenyl)-4-hydroxy-3-{5-[4-(trifluoromethoxy)phenyl]-1H,2H,3H,4H,5H,6H-pyrrolo[3,4-c]pyrrol-2-yl}butanamide], for which, in experiment [2] (MST plot of FIG. 1), the “S/N of MST plot” value is listed as 20.1 and the “dFnorm of MST plot” value turned out to be 23.9. The pKd in experiment [2] was 5.29.
With `O=C(CC(CO)N1CCOC2(CCN(c3ccc(OC(F)(F)F)cc3)C2)C1)Nc1ccc(Cl)cc1` (centres unmarked) [Example 5, N-(4-chlorophenyl)-4-hydroxy-3-{2-[4-(trifluoromethoxy)phenyl]-6-oxa-2,9-diazaspiro[4.5]decan-9-yl}butanamide], in experiment [2], the pKd was 5.42.
On to `O=C(CC(CO)N1CCCC(C2CN(c3ccc(OC(F)(F)F)cc3)C2)C1)Nc1ccc(Cl)cc1` (centres unmarked) [Example 6, N-(4-chlorophenyl)-4-hydroxy-3-(3-{1-[4-(trifluoromethoxy)phenyl]azetidin-3-yl}piperidin-1-yl)butanamide], for which the pKd in experiment [2] was 5.01.
Regarding `O=C(CC(CO)N1CC2(CCN(c3ccc(OC(F)(F)F)cc3)C2)C1)Nc1ccc(Cl)cc1` (centres unmarked) [Example 7, N-(4-chlorophenyl)-4-hydroxy-3-{6-[4-(trifluoromethoxy)phenyl]-2,6-diazaspiro[3.4]octan-2-yl}butanamide], the negative logarithm of the Kd (pKd) in experiment [2] was 4.88.
Turning to `O=C(CC(CO)N1CCCC2C1CCN2c1ccc(OC(F)(F)F)cc1)Nc1ccc(Cl)cc1` (centres unmarked) [Example 8, N-(4-chlorophenyl)-4-hydroxy-3-{1-[4-(trifluoromethoxy)phenyl]-octahydro-1H-pyrrolo[3,2-b]pyridin-4-yl}butanamide], the negative-log Kd (pKd) in experiment [2] is 5.55.
As to `O=C(CC(CO)N1CC2CN(c3ccc(OC(F)(F)F)cc3)CC2C1)Nc1ccc(Cl)cc1` (centres unmarked) [Example 9, N-(4-chlorophenyl)-4-hydroxy-3-{5-[4-(trifluoromethoxy)phenyl]-octahydropyrrolo[3,4-c]pyrrol-2-yl}butanamide], the pKd in experiment [2] is 4.94.
For the compound `O=C(CC(CO)N1CCCC2(CCCN(c3ccc(OC(F)(F)F)cc3)C2)C1)Nc1ccc(Cl)cc1` (centres unmarked) [Example 10, N-(4-chlorophenyl)-4-hydroxy-3-{8-[4-(trifluoromethoxy)phenyl]-2,8-diazaspiro[5.5]undecan-2-yl}butanamide], the pKd in experiment [2] is 5.72.

As a reminder, the pKd is the negative decadic logarithm of the Kd, by convention in mol/L.
